Article PMC7648750, “In vitro and in vivo BNCT investigations using a carborane containing sulfonamide targeting CAIX epitopes on malignant pleural mesothelioma and breast cancer cells” (Scientific Reports, 2020)

What was measured:
AB22 cells = test: MTT cell vitality assay; assay type: cell-based, mouse; details: AB22, 24 h, normoxia, Fig. 3
Description: (§1) The MTT assay is based on the reduction in the mitochondria of metabolically active cells by succinate dehydrogenase obtaining a precipitation of purple formazan crystal. The assay was carried out using the same protocol reported by Azzi et al[42]. Briefly, AB22, ZL34 and MCF7 cells were seeded at a density of 7 × 10^3, 5 × 10^3 and 1 × 10^4 cells per well, respectively, in a 96-well microtiter plate. After 24 h at 37 °C and 5% CO2, they were incubated with increasing concentration of CA-SF or AZ for 24 h in a condition of normoxia at 37 °C and 5% CO2 by adding stock solutions in dimethyl sulfoxide (DMSO). In all the conditions the concentration of DMSO during the cell incubation was maintained under 0.25% (v/v) in cell medium. After the incubation, the medium was removed and each well was incubated with thiazolyl blue tetrazolium bromide (Sigma) dissolved in the medium at a concentration of 0.45 mg/mL for 4 h at 37 °C and 5% CO2. Then, after medium elimination, 150 µL of DMSO were added into each well to solubilise the formazan salt crystals produced by the metabolism of live cells and the microplate was incubated at room temperature (RT) for 30 min. Finally, absorbance was measured at 570 nm using an iMark microplate reader (Biorad). Cell vitality was reported as the percentage of […] cells observed in the treated samples relative to that observed in the non-treated control cells.

MCF7 cells = test: MTT cell vitality assay; assay type: cell-based, human; details: MCF7, 24 h, normoxia, Fig. 3
Description: as §1

ZL34 cells = test: MTT cell vitality assay; assay type: cell-based, human; details: ZL34, 24 h, normoxia, Fig. 3
Description: as §1

[1] = clinical applications; no reference given; cited from earlier work

Row | Compound | percentage of viable cells with increasing concentration (MTT) (AB22 cells) | percentage of viable cells with increasing concentration (MTT) (MCF7 cells) | percentage of viable cells with increasing concentration (MTT) (ZL34 cells) | boron concentration ratio between tumour and normal tissues [1]
1 | CC(=O)Nc1nnc(S(N)(=O)=O)s1 [AZ, 5-acetamido-1,3,4-thiadiazole-2-sulfonamide, reference compound] | negligible | negligible | negligible | 
2 | N[C@@H](Cc1ccc(B(O)O)cc1)C(=O)O [BPA, L-para-boronphenylalanine] |  |  |  | 3–5
3 | sodium mercaptoundecaidro-closo-dodecaborate [BSH] |  |  |  | 3–5
